Read-outs that look alike come from different tables or passages of the source. The star is where a group is joined. Cbz = O=C(OCc1ccccc1)*; CH2F = FC*
Assays:
[1] = tested on: SNU-245 (the biliary tract cancer cell line); experiment: 2 day cytotoxicity assay against SNU-245 cells (pretreated or formulated NK cells, or ponatinib alone)
[2] = tested on: MDA-MB-231 (the breast cancer cell line); conditions: FIG. 6B; pretreatment 24 hrs (30, 100 and 300 μM); E:T 0.5:1, 48 hrs
[3] = tested on: SNU-387 (the liver cancer cell line); experiment: 2 day cytotoxicity assay of kinase inhibitor pretreated NK cells against SNU-387
[4] = tested on: AGS (the stomach cancer cell line); conditions: FIG. 6A; pretreatment 24 hrs (30, 100 and 300 μM); E:T 0.5:1, 48 hrs
human NK cells = conditions: cited from earlier work; for NK cytokine production / NK cytotoxicity: direct exposure of human NK cells with pharmacological doses, in vitro (Krieg and Ullrich 2013)
[5] = tested on: HCT-15 (colon cancer) cells; experiment: Cytotoxicity of NK cells after TGF-β receptor inhibitor treatment (HCT-15); assay type: cell-based; conditions: NK cells treated with LY2157299 100 nM for 24 hours, co-cultured 48 hours
Protocol: (§1) NK cells are treated with LY2157299 (100 nM), a compound inhibiting kinases related to TGF-β receptor signaling, for 24 hours and then co-cultured with SK-4 (stomach cancer) or HCT-15 (colon cancer) cells for 48 hours.

[6] = tested on: TGF-β-induced NK cell death; experiment: NK cell survival after TGF-β treatment (trypan blue); assay type: cell-based, human; conditions: FIG. 1E; LY2157299 100 nM pretreatment 24 hours, then 1 ng/mL TGF-β for two days
[7] = tested on: SK-4 (stomach cancer) cells; experiment: Cytotoxicity of NK cells after TGF-β receptor inhibitor treatment (SK-4); assay type: cell-based; conditions: NK cells treated with LY2157299 100 nM for 24 hours, co-cultured 48 hours
Protocol: as §1

[8] = tested on: sGITRL-induced NK cell death; experiment: NK cell survival after sGITRL treatment (trypan blue); assay type: cell-based, human; conditions: then 5 ng/mL sGITRL for two days
[9] = tested on: Fas-L-induced NK cell death; experiment: NK cell survival after Fas-L treatment (trypan blue); assay type: cell-based, human; conditions: FIG. 1D; Z-IETD-FMK 2 μM pretreatment 24 hours, then 5 ng/mL Fas-L for two days
[10] = tested on: PC-3 (prostate cancer) cells; experiment: Cytotoxicity of NK cells after caspase-8 inhibitor treatment (PC-3); assay type: cell-based; conditions: NK cells treated with Z-IETD-FMK 2 μM for 24 hours, co-cultured 48 hours
Protocol: (§2) NK cells are treated with Z-IETD-FMK (2 μM), an inhibitory peptide against apoptosis-related activity of Caspase-8, for 24 hours and then co-cultured with NCI-H1299 (lung cancer) or PC-3 (prostate cancer) cells for 48 hours.

[11] = tested on: NCI-H1299 (lung cancer) cells; experiment: Cytotoxicity of NK cells after caspase-8 inhibitor treatment (NCI-H1299); assay type: cell-based; conditions: NK cells treated with Z-IETD-FMK 2 μM for 24 hours, co-cultured 48 hours
Protocol: as §2

[12] = FIG. 7A, pretreatment 24 hrs, E:T 0.5:1, 48 hrs
[13] = FIG. 7B, pretreatment 24 hrs, E:T 0.5:1, 48 hrs
[14] = resting and IL-2-activated NK cells (Krusch et al. 2009)

For `CCN(CC)CCNC(=O)c1c(C)[nH]c(/C=C2\C(=O)Nc3ccc(F)cc32)c1C` [sunitinib], the “anti-cancer cytotoxicity of kinase inhibitor pretreated NK cells against SNU-245 vs untreated NK cells” value [1] was “did not increase”, the “anti-cancer cytotoxicity of kinase inhibitor pretreated NK cells against MDA-MB-231 vs untreated NK cells” value [2] was “did not show any differences” and the “anti-cancer cytotoxicity of kinase inhibitor pretreated NK cells against SNU-387 vs untreated NK cells” value [3] was “did not increase”. The “anti-cancer cytotoxicity of kinase inhibitor pretreated NK cells against AGS vs untreated NK cells” value [4] was “did not show any differences” and the “cytotoxicity of NK cells in response to tumor targets” value (human NK cells) was “concentration dependently inhibited”.

With `Cc1cccc(-c2nn3c(c2-c2ccnc4ccc(C(N)=O)cc24)CCC3)n1` [LY2157299] the “Cytotoxicity of NK Cells to HCT-15 Cells” value ([5]; E:T = 0.1:1, W/ IL-2) was 86%, the “Cytotoxicity of NK Cells to HCT-15 Cells” value ([5]; E:T = 0.1:1, W/O IL-2) was 68% and the “Cytotoxicity of NK Cells to HCT-15 Cells” value ([5]; E:T = 05:1, W/ IL-2) was 98%. For the same compound, the “Cytotoxicity of NK Cells to HCT-15 Cells” value ([5]; E:T = 05:1, W/O IL-2) was 82%, the “cell death induced by TGF-β (NK cell survival rate)” value [6] was “suppressed cell death” and the “Cytotoxicity of NK Cells to SK-4 Cells” value ([7]; E:T = 0.1:1, With IL-2) was 39%. For the same compound, the “Cytotoxicity of NK Cells to SK-4 Cells” value ([7]; E:T = 0.1:1, Without IL-2) was 27%, the “Cytotoxicity of NK Cells to SK-4 Cells” value ([7]; E:T = 05:1, With IL-2) was 59% and the “Cytotoxicity of NK Cells to SK-4 Cells” value ([7]; E:T = 05:1, Without IL-2) was 35%. The “cell death induced by sGITRL (NK cell survival rate)” value ([8]; FIG. 1E, LY2157299 100 nM pretreatment 24 hours) was “suppressed cell death”.

With `CNC(=O)c1cc(Oc2ccc(NC(=O)Nc3ccc(Cl)c(C(F)(F)F)c3)cc2)ccn1` [sorafenib] the “anti-cancer cytotoxicity of kinase inhibitor pretreated NK cells against SNU-245 vs untreated NK cells” value [1, 12] was “did not increase”, the “anti-cancer cytotoxicity of kinase inhibitor pretreated NK cells against MDA-MB-231 vs untreated NK cells” value [2] was “did not show any differences” and the “anti-cancer cytotoxicity of kinase inhibitor pretreated NK cells against SNU-387 vs untreated NK cells” value [3, 13] was “did not increase”. The “anti-cancer cytotoxicity of kinase inhibitor pretreated NK cells against AGS vs untreated NK cells” value [4] was “did not show any differences”, the “IFN-γ production of NK cells in response to tumor targets” value (human NK cells; [14]) was “concentration dependently inhibited” and the “cytotoxicity of NK cells in response to tumor targets” value (human NK cells; [14]) was “concentration dependently inhibited”.

For `COc1cc(Nc2c(C#N)cnc3cc(OCCCN4CCN(C)CC4)c(OC)cc23)c(Cl)cc1Cl` [bosutinib], the “anti-cancer cytotoxicity of kinase inhibitor pretreated NK cells against SNU-245 vs untreated NK cells” value [1, 12] was “did not increase” and the “anti-cancer cytotoxicity of kinase inhibitor pretreated NK cells against SNU-387 vs untreated NK cells” value [3, 13] was “did not increase”.

With `COc1cc2c(Nc3ccc(Br)cc3F)ncnc2cc1OCC1CCN(C)CC1` [vandetanib] the “anti-cancer cytotoxicity of kinase inhibitor pretreated NK cells against SNU-245 vs untreated NK cells” value [1, 12] was “did not increase” and the “anti-cancer cytotoxicity of kinase inhibitor pretreated NK cells against SNU-387 vs untreated NK cells” value [3, 13] was “did not increase”.

With Cbz-IETD-CH2F the “cell death induced by Fas-L (NK cell survival rate)” value [9] was “suppressed cell death”, the “Cytotoxicity of NK Cells to PC-3 Cells” value ([10]; E:T = 0.1:1, W/ IL-2) was 76% and the “Cytotoxicity of NK Cells to PC-3 Cells” value ([10]; E:T = 0.1:1, W/O IL-2) was 48%. For the same compound, the “Cytotoxicity of NK Cells to PC-3 Cells” value ([10]; E:T = 0.5:1, W/ IL-2) was 96%, the “Cytotoxicity of NK Cells to PC-3 Cells” value ([10]; E:T = 0.5:1, W/O IL-2) was 78% and the “Cytotoxicity of NK Cells to NCI-H1299 Cells” value ([11]; E:T = 0.1:1, With IL-2) was 33%. For the same compound, the “Cytotoxicity of NK Cells to NCI-H1299 Cells” value ([11]; E:T = 0.1:1, Without IL-2) was 25%, the “Cytotoxicity of NK Cells to NCI-H1299 Cells” value ([11]; E:T = 0.5:1, With IL-2) was 58% and the “Cytotoxicity of NK Cells to NCI-H1299 Cells” value ([11]; E:T = 0.5:1, Without IL-2) was 34%. The “cell death induced by sGITRL (NK cell survival rate)” value ([8]; FIG. 1D, Z-IETD-FMK 2 μM pretreatment 24 hours) was “suppressed cell death”.

With `Cc1cn(-c2cc(NC(=O)c3ccc(C)c(Nc4nccc(-c5cccnc5)n4)c3)cc(C(F)(F)F)c2)cn1` [nilotinib] the “anti-cancer cytotoxicity of kinase inhibitor pretreated NK cells against SNU-245 vs untreated NK cells” value [1, 12] was “did not increase”, the “anti-cancer cytotoxicity of kinase inhibitor pretreated NK cells against MDA-MB-231 vs untreated NK cells” value [2] was “did not show any differences” and the “anti-cancer cytotoxicity of kinase inhibitor pretreated NK cells against SNU-387 vs untreated NK cells” value [3, 13] was “did not increase”. For the same compound, the “anti-cancer cytotoxicity of kinase inhibitor pretreated NK cells against AGS vs untreated NK cells” value [4] was “did not show any differences” and the NK cytokine production (human NK cells) was “negatively influenced”.

With `Cc1ccc(NC(=O)c2ccc(CN3CCN(C)CC3)cc2)cc1Nc1nccc(-c2cccnc2)n1` [imatinib] the “anti-cancer cytotoxicity of kinase inhibitor pretreated NK cells against SNU-245 vs untreated NK cells” value [1, 12] was “did not increase”, the “anti-cancer cytotoxicity of kinase inhibitor pretreated NK cells against MDA-MB-231 vs untreated NK cells” value [2] was “did not show any differences” and the “anti-cancer cytotoxicity of kinase inhibitor pretreated NK cells against SNU-387 vs untreated NK cells” value [3, 13] was “did not increase”. For the same compound, the “anti-cancer cytotoxicity of kinase inhibitor pretreated NK cells against AGS vs untreated NK cells” value [4] was “did not show any differences”, the NK cytokine production (human NK cells) was “no impact” and the NK cytotoxicity (human NK cells) was “no impact”.

For `Cc1nc(Nc2ncc(C(=O)Nc3c(C)cccc3Cl)s2)cc(N2CCN(CCO)CC2)n1` [dasatinib], the “anti-cancer cytotoxicity of kinase inhibitor pretreated NK cells against SNU-245 vs untreated NK cells” value [1, 12] was “slightly increased anticancer activity”, the “anti-cancer cytotoxicity of kinase inhibitor pretreated NK cells against MDA-MB-231 vs untreated NK cells” value [2] was “did not show any differences” and the “anti-cancer cytotoxicity of kinase inhibitor pretreated NK cells against SNU-387 vs untreated NK cells” value [3, 13] was “did not increase”. For the same compound, the “anti-cancer cytotoxicity of kinase inhibitor pretreated NK cells against AGS vs untreated NK cells” value [4] was “did not show any differences” and the NK cytotoxicity (human NK cells) was “abrogated cytotoxicity”.

Source: patent US11504396B2 (NKMAX Co., Ltd., priority 2016, dated 2022)
